Measurements as given in patent publication US20190105367A1, “ANTIMICROBIAL 4-OXOQUINOLIZINES” (Emergent Product Development Gaithersburg Inc., priority 2011, published 2019).
Read-outs that look alike come from different tables or passages of the source.

Assays:
A. baumannii ATCC 19606 [1] = assay: Preliminary MBC without and with sub-inhibitory polymyxin B (Example 4); format: cell-based, Acinetobacter baumannii; conditions: Acinetobacter baumannii
A. baumannii A387 [2] = assay: MIC without and with sub-inhibitory polymyxin B (Example 4); format: cell-based, Acinetobacter baumannii; conditions: for MIC without PB/MIC + PB: A. baumannii A387; for MIC: Acinetobacter baumannii
A. baumannii ATCC 19606 [3] = assay: as above; format: cell-based, Acinetobacter baumannii; conditions: for MIC without PB/MIC + PB: A. baumannii ATCC 19606; for MIC: Acinetobacter baumannii
A. baumannii A489 = assay: as above; format: cell-based, Acinetobacter baumannii
A. baumannii A387 [4] = assay: Preliminary MBC without and with sub-inhibitory polymyxin B (Example 4); format: cell-based, Acinetobacter baumannii; conditions: Acinetobacter baumannii
A. baumannii A401 [5] = assay: as above; format: cell-based, Acinetobacter baumannii; conditions: Acinetobacter baumannii
A. baumannii NCTC 13301 [6] = assay: as above; format: cell-based, Acinetobacter baumannii; conditions: Acinetobacter baumannii
Procedure, shortened: (§1)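 After plating, cultures are held at 37° C for 18-20 hours; the endpoint is then scored by comparing colony growth against the positive control, with MBC defined as the lowest concentration showing roughly 90% reduction.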

A. baumannii A14 [7] = assay: as above; format: cell-based, Acinetobacter baumannii; conditions: 2nd experiment
Procedure, shortened: as §1

A. baumannii A390 [8] = assay: as above; format: cell-based, Acinetobacter baumannii; conditions: Acinetobacter baumannii, A390, A. baumannii A390, +0.06 μg/ml PB, 2nd experiment, read-out: MBC
Procedure, shortened: as §1

A. baumannii A473 [9] = assay: as above; format: cell-based, Acinetobacter baumannii; conditions: Acinetobacter baumannii, A473, A. baumannii A473, +0.06 μg/ml PB, 2nd experiment, read-out: MBC
Procedure, shortened: as §1

A. baumannii A329 = assay: as above; format: cell-based, Acinetobacter baumannii; conditions: Acinetobacter baumannii, A329, A. baumannii A329, +0.06 μg/ml PB, 2nd experiment, read-out: MBC
A. baumannii A390 [10] = assay: MIC without and with sub-inhibitory polymyxin B (Example 4); format: cell-based, Acinetobacter baumannii; conditions: +0.06 μg/ml PB, 2nd experiment; for MIC: Acinetobacter baumannii, A390, A. baumannii A390, read-out: MIC
A. baumannii A472 [11] = assay: Preliminary MBC without and with sub-inhibitory polymyxin B (Example 4); format: cell-based, Acinetobacter baumannii; conditions: Acinetobacter baumannii
A. baumannii NCTC 13301 [12] = assay: MIC without and with sub-inhibitory polymyxin B (Example 4); format: cell-based, Acinetobacter baumannii; conditions: +[…] PB, 2nd experiment
A. baumannii A14 [13] = assay: Preliminary MBC without and with sub-inhibitory polymyxin B (Example 4); format: cell-based, Acinetobacter baumannii; conditions: A. baumannii A14; +0.06 μg/ml polymyxin B; preliminary MBC; 1st experiment
A. baumannii A401 [14] = assay: MIC without and with sub-inhibitory polymyxin B (Example 4); format: cell-based, Acinetobacter baumannii; conditions: for MIC: Acinetobacter baumannii
A. baumannii A14 [15] = assay: as above; format: cell-based, Acinetobacter baumannii; conditions: 1st experiment; for MIC +0.06 μg/ml PB: +0.06 μg/ml polymyxin B
A. baumannii A472 [16] = assay: as above; format: cell-based, Acinetobacter baumannii; conditions: for MIC: Acinetobacter baumannii
A. baumannii NCTC 13301 [17] = assay: as above; format: cell-based, Acinetobacter baumannii; conditions: for MIC: Acinetobacter baumannii, NCTC13301, read-out: MIC +[…] PB
[18] = system: Acinetobacter sp. (H064200250); assay: as above; format: cell-based; conditions: for MIC: Acinetobacter
A. baumannii A473 [19] = assay: as above; format: cell-based, Acinetobacter baumannii; conditions: +0.06 μg/ml PB, 2nd experiment; for MIC: Acinetobacter baumannii, A473, A. baumannii A473, read-out: MIC
A. baumannii J2 = assay: as above; format: cell-based, Acinetobacter baumannii; conditions: for MIC without PB/MIC + PB: A. baumannii J2; for MIC: Acinetobacter baumannii
A. baumannii A14 [20] = assay: as above; format: cell-based, Acinetobacter baumannii; conditions: 2nd experiment
[21] = system: strains of A. baumannii and one strain of Acinetobacter sp.; assay: MIC with sub-inhibitory concentrations (0.25x MIC) of polymyxin B, panel of Acinetobacter strains (Example 4); format: cell-based
[22] = ATCC19606, A. baumannii ATCC 19606, +0.06 μg/ml PB, 2nd experiment, read-out: MBC
[23] = ATCC19606, read-out: MBC +0.06 μg/ml PB, A. baumannii ATCC 19606, +0.06 μg/ml polymyxin B, 1st experiment
[24] = ratio, PB 0.06 μg/ml, 1st experiment
[25] = A387, read-out: MIC +0.06 μg/ml PB, A. baumannii A387, +0.06 μg/ml polymyxin B, 1st experiment
[26] = A. baumannii A489, +[…] PB, 2nd experiment
[27] = Acinetobacter baumannii, A489, read-out: MIC +[…] PB, A. baumannii A489, +[…] polymyxin B, 1st experiment
[28] = A387, A. baumannii A387, +0.06 μg/ml PB, 2nd experiment, read-out: MBC
[29] = A387, read-out: MBC +0.06 μg/ml PB, A. baumannii A387, +0.06 μg/ml polymyxin B, 1st experiment
[30] = A401, A baumannii A 401, +0.06 μg/ml PB, 2nd experiment, read-out: MBC
[31] = NCTC13301, read-out: MBC +[…] PB
[32] = A. baumannii A14, +0.06 μg/ml PB
[33] = A472, read-out: MBC +[…] PB, A. baumannii A472, +[…] polymyxin B, preliminary MBC, 1st experiment
[34] = A401, A baumannii A 401, +0.06 μg/ml PB, 2nd experiment, read-out: MIC
[35] = A401, read-out: MIC +0.06 μg/ml PB, A baumannii A 401, +0.06 μg/ml polymyxin B, 1st experiment
[36] = A472, read-out: MIC +[…] PB, A. baumannii A472, +[…] polymyxin B, 1st experiment
[37] = read-out: MIC +[…] PB, Acinetobacter spp. H064200250, +[…] polymyxin B, 1st experiment

Cc1c(-c2ccc(CN)cc2)c(F)cn2c(=O)c(C(=O)O)cc(C3CC3)c12 [Compound 6, 8-(4-aminomethyl-phenyl)-1-cyclopropyl-7-fluoro-9-methyl-4-oxo-quinolizine-3-carboxylic acid]
32 µg/mL: MBC (A. baumannii A401 [5]; [30])
16 µg/mL: MBC (A. baumannii A14 [7]; Acinetobacter baumannii, A14, A. baumannii A14, without PB, read-out: MBC) | MIC (A. baumannii A14 [20]; Acinetobacter baumannii, A14, A. baumannii A14, without PB, read-out: MIC)
0.25 µg/mL: MIC (A. baumannii J2; J2)
8 µg/mL: MBC (A. baumannii A14 [7]; [32]) | MBC (A. baumannii A329) | MBC +0.06 μg/ml PB (A. baumannii A14 [13]) | MIC +0.06 μg/ml PB (A. baumannii A14 [15])
2 µg/mL: MBC (A. baumannii NCTC 13301 [6]; NCTC13301) | MBC (A. baumannii A390 [8]) | MBC (A. baumannii A473 [9]) | MIC (A. baumannii A390 [10]) | MIC [18] | MIC (A. baumannii A473 [19])
4 µg/mL: MBC (A. baumannii NCTC 13301 [6]; [31]) | MIC (A. baumannii A401 [14]; [34]) | MIC (A. baumannii A401 [14]; [35]) | MIC [18, 37] | MIC (A. baumannii A14 [20]; [32])
8: MIC without PB/MIC + PB (A. baumannii A387 [2]; [24]) | MIC without PB/MIC + PB (A. baumannii ATCC 19606 [3]; [24]) | MIC without PB/MIC + PB (A. baumannii A489; [26]) | MIC without PB/MIC + PB (A. baumannii A390 [10]; A. baumannii A390) | MIC without PB/MIC + PB ([18]; Acinetobacter spp. H064200250 (OXA51), +[…] PB, 2nd experiment)
16: MIC without PB/MIC + PB (A. baumannii A489; A. baumannii A489, ratio, PB […], 1st experiment) | MIC without PB/MIC + PB (A. baumannii NCTC 13301 [12]; A. baumannii NCTC 13301) | MIC without PB/MIC + PB (A. baumannii A472 [16]; A. baumannii A472, ratio, PB […], 1st experiment) | MIC without PB/MIC + PB (A. baumannii J2; ratio, PB […], 1st experiment)
32: MIC without PB/MIC + PB (A. baumannii NCTC 13301 [17]; A. baumannii NCTC 13301, ratio, PB […], 1st experiment) | MIC without PB/MIC + PB (A. baumannii J2; +[…] PB, 2nd experiment)
2: MIC without PB/MIC + PB ([18]; Acinetobacter spp. H064200250, ratio, PB […], 1st experiment)
0.5 µg/mL: MIC (A. baumannii A387 [2]; [25]) | MIC (A. baumannii A489; [26]) | MIC (A. baumannii A489; [27]) | MBC (A. baumannii A387 [4]; [29]) | MBC (A. baumannii A472 [11]; [33]) | MIC (A. baumannii A472 [16]; [36])
4: MIC without PB/MIC + PB (A. baumannii A387 [2]; +0.06 μg/ml PB, 2nd experiment) | MIC without PB/MIC + PB (A. baumannii ATCC 19606 [3]; +0.06 μg/ml PB, 2nd experiment) | MIC without PB/MIC + PB (A. baumannii A401 [14]; A baumannii A 401, ratio, PB 0.06 μg/ml, 1st experiment) | MIC without PB/MIC + PB (A. baumannii A14 [15]; ratio, PB 0.06 μg/ml) | MIC without PB/MIC + PB (A. baumannii A473 [19]; A. baumannii A473) | MIC without PB/MIC + PB (A. baumannii A14 [20]; [32])
1 µg/mL: MIC (A. baumannii A387 [2]; A387, A. baumannii A387, +0.06 μg/ml PB, 2nd experiment, read-out: MIC) | MBC (A. baumannii A387 [4]; [28]) | MBC (A. baumannii A472 [11]; A472) | MIC (A. baumannii A472 [16]; A472) | MIC (A. baumannii NCTC 13301 [17]) | MIC (A. baumannii J2; J2, read-out: MIC +[…] PB, A. baumannii J2, +[…] polymyxin B, 1st experiment)
0.06 µg/mL: MBC (A. baumannii ATCC 19606 [1]; [22]) | MBC (A. baumannii ATCC 19606 [1]; [23]) | MIC (A. baumannii ATCC 19606 [3]; ATCC19606, A. baumannii ATCC 19606, +0.06 μg/ml PB, 2nd experiment, read-out: MIC) | MIC (A. baumannii ATCC 19606 [3]; ATCC19606, read-out: MIC +0.06 μg/ml PB, A. baumannii ATCC 19606, +0.06 μg/ml polymyxin B, 1st experiment)

C[C@@H](O)[C@H]1C(=O)N2C(C(=O)O)=C(S[C@@H]3CN[C@H](C(=O)N(C)C)C3)[C@H](C)[C@H]12 [Meropenem]
≤ 0.125 µg/mL: MIC (A. baumannii A489; Acinetobacter baumannii, A489, A. baumannii A489, +[…] PB, 2nd experiment, read-out: MIC) | MBC (A. baumannii NCTC 13301 [6]; NCTC13301, A. baumannii NCTC 13301, +[…] PB, preliminary MBC, 2nd experiment, read-out: MBC) | MBC (A. baumannii A472 [11]; A472, A. baumannii A472, +[…] PB, preliminary MBC, 2nd experiment, read-out: MBC) | MBC (A. baumannii A472 [11]; [33]) | MIC (A. baumannii A472 [16]; A472, A. baumannii A472, +[…] PB, 2nd experiment, read-out: MIC) | MIC (A. baumannii A472 [16]; [36]) | MIC (A. baumannii J2; J2, A. baumannii J2, +[…] PB, 2nd experiment, read-out: MIC)
1 µg/mL: MIC (A. baumannii A387 [2]; [25]) | MBC (A. baumannii A387 [4]; [29]) | MBC (A. baumannii NCTC 13301 [6]; [31]) | MBC (A. baumannii A14 [7]; [32]) | MIC (A. baumannii NCTC 13301 [17]) | MIC [18, 37]
≤0.125 to 32 µg/mL: MIC range with PB (0.25x MIC) Oct. 14, 2008 n = 11 ([21]; 2nd experiment, 0.06 μg/ml polymyxin B, all strains except the ATCC strain)
32 µg/mL: MBC (A. baumannii A329)
<0.125 to 4 µg/mL: MIC range with PB (0.25x MIC) Oct. 1, 2008 n = 8 ([21]; 1st experiment, […] polymyxin B, ATCC 19606, A329, A390 and A473 not taken)
0.5 µg/mL: MIC (A. baumannii A489; [27]) | MBC +0.06 μg/ml PB (A. baumannii A14 [13]) | MIC +0.06 μg/ml PB (A. baumannii A14 [15])
2 µg/mL: MBC (A. baumannii ATCC 19606 [1]; [22]) | MBC (A. baumannii ATCC 19606 [1]; [23]) | MBC (A. baumannii A387 [4]; [28]) | MBC (A. baumannii A390 [8]) | MBC (A. baumannii A473 [9]) | MIC (A. baumannii A390 [10]) | MIC (A. baumannii A473 [19]) | MIC (A. baumannii A14 [20]; Acinetobacter baumannii, A14, A. baumannii A14, without PB, value in parentheses, read-out: MIC read with alamar blue)
0.25 µg/mL: MIC (A. baumannii NCTC 13301 [12]; Acinetobacter baumannii, NCTC13301, A. baumannii NCTC 13301, read-out: MIC) | MIC ([18]; Acinetobacter spp. H064200250 (OXA51), +[…] PB, 2nd experiment, read-out: MIC)
4 µg/mL: MBC (A. baumannii A401 [5]; [30]) | MBC (A. baumannii A401 [5]; A401, read-out: MBC +0.06 μg/ml PB, A baumannii A 401, +0.06 μg/ml polymyxin B, 1st experiment) | MIC (A. baumannii A401 [14]; [34]) | MIC (A. baumannii A401 [14]; [35])
